Assay results as given in patent publication US8101576B2, “Compounds and their effects on feeding behaviour” (priority 2006, dated 2012).
Square brackets hold non-standard residues; d marks the D form. Ends that are not written are not given here. * marks the point of attachment. Palmitoyl = CCCCCCCCCCCCCCCC(=O)*; Myristoyl = CCCCCCCCCCCCCC(=O)*

Experiment: Inhibition of food intake, subcutaneous injection to fasted rats
Format: in vivo, Wistar rats
Procedure: Animals: All animal procedures were approved by the British Home Office Animals (Scientific Procedures) Act 1986 (Project License number 70/5516).
Study protocol: C57BL/6 mice (20-35 g) were injected with the peptide under investigation following a 20-hour fast. Wistar rats were injected following a 24-hour fast. […] A pre-weighed quantity of chow was presented immediately after injection.

With “D-His Ala Asp Gly Thr Phe Thr Ser Asp Tyr Ser Lys Tyr Leu Glu Glu Glu Leu Val Lys Tyr Phe Ile Gln Trp Leu Lys Asn Gly Gly Pro Ser Lys Asn Asn Ile Ala Ala Ala Lys-myristoyl ([dH]ADGTFTSDYSKYLEEELVKYFIQWLKNGGPSKNNIAAAK(Myristoyl)) [PEPTIDE NO: 206]” the “food intake in comparison to control group treated with native oxyntomodulin” value (shortened to “food intake … with native oxyntomodulin”) (80 mmoles/kg, over 48 hours) was “lower than in the control group treated with native oxyntomodulin” and the “Mean cumulative food intake in comparison to saline control” value (shortened to “Mean cumulative food intake”) (over 48 hours) was “potent and long acting suppression of food intake”.
For “D-His Ala Asp Gly Thr Phe Thr Ser Asp Tyr Ser Lys Tyr Leu Glu Glu Glu Leu Val Lys Tyr Phe Ile Gln Trp Leu Lys Asn Gly Gly Pro Ser Lys Asn Asn Ile Ala Ala Ala Lys-palmitoyl ([dH]ADGTFTSDYSKYLEEELVKYFIQWLKNGGPSKNNIAAAK(Palmitoyl)) [PEPTIDE NO: 207]”, the “food intake … with native oxyntomodulin” value (80 mmoles/kg, over 48 hours) was “lower than in the control group treated with native oxyntomodulin” and the “Mean cumulative food intake” value (over 48 hours) was “potent and long acting suppression of food intake”.
For “D-His Ala Asp Gly Thr Phe Thr Ser Asp Tyr Ser Lys Tyr Leu Glu Glu Glu Leu Val Lys Tyr Phe Ile Gln Trp Leu Lys Asn Gly Gly Pro Ser Lys Asn Asn Ile Ala ([dH]ADGTFTSDYSKYLEEELVKYFIQWLKNGGPSKNNIA) [PEPTIDE NO: 155]”, the “food intake suppression continues for” value (4 nmoles/kg, 32 hours observed) was ≥ 32 h, the “Mean cumulative food intake” value (4 nmoles/kg, over 32 hours) was “potent and long acting suppression of food intake” and the “food intake … with native oxyntomodulin” value (4 nmoles/kg, over 32 hours) was “lower than in the control group treated with native oxyntomodulin”.
With “D-His Ser Gln Gly Thr Phe Thr Ser Asp Tyr Ser Lys Tyr Leu Glu Gln Glu Ile Val Lys Tyr Phe Ile Gln Trp Leu Lys Asn Ala Gly Pro Ser Lys Asn Asn Ile Ala ([dH]SQGTFTSDYSKYLEQEIVKYFIQWLKNAGPSKNNIA) [PEPTIDE NO: 94]” the “Mean cumulative food intake” value (5 nmoles/kg, over 24 hours) was “potent and long acting suppression of food intake” and the “food intake … with native oxyntomodulin” value (5 nmoles/kg, over 24 hours) was “lower than in the control group treated with native oxyntomodulin”.
For “D-His Ser Gln Gly Thr Phe Thr Ser Asp Tyr Ser Lys Tyr Leu Glu Glu Glu Leu Val Lys Tyr Phe Ile Gln Trp Leu Met Asn Thr Lys Arg Asn Lys Asn Asn Ile Ala ([dH]SQGTFTSDYSKYLEEELVKYFIQWLMNTKRNKNNIA) [PEPTIDE NO: 60]”, the “Mean cumulative food intake” value (100 nmoles/kg, over 24 hours) was “potent and long acting suppression of food intake” and the “food intake … with native oxyntomodulin” value (100 nmoles/kg, over 24 hours) was “lower than in the control group treated with native oxyntomodulin”.
In the case of “D-His Ala Asp Gly Thr Phe Thr Ser Asp Tyr Ser Lys Tyr Leu Glu Glu Glu Ile Val Lys Tyr Phe Ile Gln Trp Leu Lys Asn Gly Gly Pro Ser Lys Asn Asn Ile Ala Lys ([dH]ADGTFTSDYSKYLEEEIVKYFIQWLKNGGPSKNNIAK) [PEPTIDE NO: 201]”, the “Mean cumulative food intake” value (5 nmoles/kg, over 48 hours) is reported as “potent and long acting suppression of food intake” and the “food intake … with native oxyntomodulin” value (5 nmoles/kg, over 48 hours) is reported as “lower than in the control group treated with native oxyntomodulin”.
For “D-His Ala Asp Gly Thr Phe Thr Ser Asp Tyr Ser Lys Tyr Leu Glu Gln Glu Leu Val Lys Tyr Phe Leu Gln Trp Leu Lys Asn Ala Gly Pro Ser Lys Asn Asn Ile Ala ([dH]ADGTFTSDYSKYLEQELVKYFLQWLKNAGPSKNNIA) [PEPTIDE NO: 172]”, the “Mean cumulative food intake” value (3 nmoles/kg, over 24 hours) was “potent and long acting suppression of food intake” and the “food intake … with native oxyntomodulin” value (3 nmoles/kg, over 24 hours) was “lower than in the control group treated with native oxyntomodulin”.
In the case of “D-His Ala Asp Gly Thr Phe Thr Ser Asp Tyr Ser Lys Tyr Leu Glu Gln Glu Leu Val Lys Tyr Phe Ile Gln Trp Leu Lys Asn Ala Gly Pro Ser Lys Asn Asn Ile Ala ([dH]ADGTFTSDYSKYLEQELVKYFIQWLKNAGPSKNNIA) [PEPTIDE NO: 178]”, the “Mean cumulative food intake” value (10 nmoles/kg, over 24 hours) is reported as “potent and long acting suppression of food intake” and the “food intake … with native oxyntomodulin” value (10 nmoles/kg, over 24 hours) is reported as “lower than in the control group treated with native oxyntomodulin”.
For “D-His Ala Asp Gly Thr Phe Thr Ser Asp Tyr Ser Lys Tyr Leu Glu Glu Glu Ile Val Lys Tyr Phe Ile Gln Trp Leu Lys Asn Gly Gly Pro Ser Lys Asn Asn Ile Ala ([dH]ADGTFTSDYSKYLEEEIVKYFIQWLKNGGPSKNNIA) [PEPTIDE NO: 167]”, the “food intake suppression continues for” value (5 nmoles/kg, 32 hours observed) was ≥ 32 h, the “Mean cumulative food intake” value (5 nmoles/kg, over 32 hours) was “potent and long acting suppression of food intake” and the “food intake … with native oxyntomodulin” value (5 nmoles/kg, over 32 hours) was “lower than in the control group treated with native oxyntomodulin”.
For “D-His Ser Gln Gly Thr Phe Thr Ser Asp Tyr Ser Lys Tyr Leu Glu Glu Glu Leu Val Lys Tyr Phe Ile Gln Trp Leu Lys Asn Ala Gly Pro Ser Lys Asn Asn Ile Ala ([dH]SQGTFTSDYSKYLEEELVKYFIQWLKNAGPSKNNIA) [PEPTIDE NO: 58]”, the “Mean cumulative food intake” value (10 nmoles/kg, over 24 hours) was “potent and long acting suppression of food intake” and the “food intake … with native oxyntomodulin” value (10 nmoles/kg, over 24 hours) was “lower than in the control group treated with native oxyntomodulin”.
For “D-His Ala Asp Gly Thr Phe Thr Ser Asp Tyr Ser Lys Tyr Leu Glu Glu Glu Leu Val Lys Tyr Phe Ile Gln Trp Leu Lys Asn Gly Gly Pro Ser Lys Asn Asn Ile Ala Lys ([dH]ADGTFTSDYSKYLEEELVKYFIQWLKNGGPSKNNIAK) [PEPTIDE NO: 204]”, the “Mean cumulative food intake” value (5 nmoles/kg, over 32 hours) was “potent and long acting suppression of food intake” and the “food intake … with native oxyntomodulin” value (5 nmoles/kg, over 32 hours) was “lower than in the control group treated with native oxyntomodulin”.
For “D-His Ala Gln Gly Thr Phe Thr Ser Asp Tyr Ser Lys Tyr Leu Glu Gln Glu Ile Val Lys Tyr Phe Ile Gln Trp Leu Lys Asn Ala Gly Pro Ser Lys Asn Asn Ile Ala ([dH]AQGTFTSDYSKYLEQEIVKYFIQWLKNAGPSKNNIA) [PEPTIDE NO: 142]”, the “Mean cumulative food intake” value (3 nmoles/kg, over 24 hours) was “potent and long acting suppression of food intake” and the “food intake … with native oxyntomodulin” value (3 nmoles/kg, over 24 hours) was “lower than in the control group treated with native oxyntomodulin”.
For “D-His Ala Asp Gly Thr Phe Thr Ser Asp Tyr Ser Lys Tyr Leu Glu Gln Glu Ile Val Lys Tyr Phe Ile Gln Trp Leu Lys Asn Gly Gly Pro Ser Lys Asn Asn Ile Ala Lys ([dH]ADGTFTSDYSKYLEQEIVKYFIQWLKNGGPSKNNIAK) [PEPTIDE NO: 202]”, the “Mean cumulative food intake” value (5 nmoles/kg, over 48 hours) was “potent and long acting suppression of food intake” and the “food intake … with native oxyntomodulin” value (5 nmoles/kg, over 48 hours) was “lower than in the control group treated with native oxyntomodulin”.
For “D-His Ser Gln Gly Thr Phe Thr Ser Asp Tyr Ser Lys Tyr Leu Glu Gln Glu Leu Val Lys Tyr Phe Ile Gln Trp Leu Lys Asn Ala Gly Pro Ser Lys Asn Asn Ile Ala ([dH]SQGTFTSDYSKYLEQELVKYFIQWLKNAGPSKNNIA) [PEPTIDE NO: 82]”, the “Mean cumulative food intake” value (10 nmoles/kg, over 24 hours) was “potent and long acting suppression of food intake” and the “food intake … with native oxyntomodulin” value (10 nmoles/kg, over 24 hours) was “lower than in the control group treated with native oxyntomodulin”.
In the case of “D-His Ala Asp Gly Thr Phe Thr Ser Asp Tyr Ser Lys Tyr Leu Glu Glu Glu Leu Val Lys Tyr Phe Leu Gln Trp Leu Lys Asn Ala Gly Pro Ser Lys Asn Asn Ile Ala ([dH]ADGTFTSDYSKYLEEELVKYFLQWLKNAGPSKNNIA) [PEPTIDE NO: 148]”, the “Mean cumulative food intake” value (10 nmoles/kg, over 24 hours) is reported as “potent and long acting suppression of food intake” and the “food intake … with native oxyntomodulin” value (10 nmoles/kg, over 24 hours) is reported as “lower than in the control group treated with native oxyntomodulin”.
In the case of “D-His Ala Gln Gly Thr Phe Thr Ser Asp Tyr Ser Lys Tyr Leu Glu Glu Glu Leu Val Lys Tyr Phe Leu Gln Trp Leu Lys Asn Ala Gly Pro Ser Lys Asn Asn Ile Ala ([dH]AQGTFTSDYSKYLEEELVKYFLQWLKNAGPSKNNIA) [PEPTIDE NO: 100]”, the “Mean cumulative food intake” value (20 nmoles/kg, over 24 hours) is reported as “potent and long acting suppression of food intake” and the “food intake … with native oxyntomodulin” value (20 nmoles/kg, over 24 hours) is reported as “lower than in the control group treated with native oxyntomodulin”.
For “D-His Ala Asp Gly Thr Phe Thr Ser Asp Tyr Ser Lys Tyr Leu Glu Glu Glu Ile Val Lys Tyr Phe Ile Glu Trp Leu Lys Asn Gly Gly Pro Ser Lys Asn Asn Ile Ala ([dH]ADGTFTSDYSKYLEEEIVKYFIEWLKNGGPSKNNIA) [PEPTIDE NO: 164]”, the “food intake suppression continues for” value (4 nmoles/kg, 48 hours observed) was ≥ 48 h, the “Mean cumulative food intake” value (4 nmoles/kg, over 48 hours) was “potent and long acting suppression of food intake” and the “food intake … with native oxyntomodulin” value (4 nmoles/kg, over 48 hours) was “lower than in the control group treated with native oxyntomodulin”.
For “D-His Ala Asp Gly Thr Phe Thr Ser Asp Tyr Ser Lys Tyr Leu Glu Gln Glu Leu Val Lys Tyr Phe Ile Gln Trp Leu Lys Asn Gly Gly Pro Ser Lys Asn Asn Ile Ala Lys ([dH]ADGTFTSDYSKYLEQELVKYFIQWLKNGGPSKNNIAK) [PEPTIDE NO: 205]”, the “Mean cumulative food intake” value (5 nmoles/kg, over 32 hours) was “potent and long acting suppression of food intake” and the “food intake … with native oxyntomodulin” value (5 nmoles/kg, over 32 hours) was “lower than in the control group treated with native oxyntomodulin”.
With “[dH]ADGWFWSDYSKYLDSRRAQDFVQWLKNAGPSKNNIA [PEPTIDE NO: 199]” the “Mean cumulative food intake” value (500 nmoles/kg, over 24 hours) was “potent and long acting suppression of food intake” and the “food intake … with native oxyntomodulin” value (500 nmoles/kg, over 24 hours) was “lower than in the control group treated with native oxyntomodulin”.
